The values that follow are results of earlier work, collected in patent US20190343121A1, “Cinmethylin Microcapsules with a Shell Made of Tetramethylxylylene Diisocyanate and a Polyamine with at Least Three Amine Groups” (BASF Agro B.V., priority 2016, published 2019).

The conditions of this data set: at 20° C.

For the substance “(±)-2-exo-(2-methylbenzyloxy)-1-methyl-4-isopropyl-7-oxabicyclo[2.2.1]heptane [Cinmethylin]”, the solubility in water was 63 µg/mL.
